{"source": "paper PMC7891380", "about": "(Chemical Biology & Drug Design, 2020)", "system": "multidrug‐resistant A. baumannii", "experiment": "Peptide MIC, standard microbroth dilution assay", "assay_type": "cell-based, Acinetobacter baumannii", "settings": "result in words, based on MIC", "data": [{"sequence": "LKIPGFVKDTLKKVAKGIFSAVAGAMTPS [Hymenochirin‐2B]", "values": [{"measurement": "potency against multidrug‐resistant A. baumannii", "result": "high potency"}]}]}
